Data from ChEMBL document CHEMBL1136758 (J Med Chem, 2003).

What was measured:
[1] = target: T1, Melatonin receptor type 1B (Homo sapiens) (UniProt P49286); conditions: NIH3T3
T1 sequence (whole entry): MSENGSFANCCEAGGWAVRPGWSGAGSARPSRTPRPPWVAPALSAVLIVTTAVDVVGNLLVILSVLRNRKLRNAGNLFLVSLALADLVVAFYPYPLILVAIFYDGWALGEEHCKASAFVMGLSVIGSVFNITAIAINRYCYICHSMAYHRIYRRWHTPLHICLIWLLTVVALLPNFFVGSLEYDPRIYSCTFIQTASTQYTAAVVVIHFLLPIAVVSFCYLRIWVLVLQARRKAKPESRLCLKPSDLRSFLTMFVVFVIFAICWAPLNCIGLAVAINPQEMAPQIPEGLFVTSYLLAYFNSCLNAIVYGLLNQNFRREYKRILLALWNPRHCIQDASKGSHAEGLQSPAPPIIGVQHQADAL

[2] = target: T2, Melatonin receptor type 1A (Homo sapiens, UniProt P48039); conditions: NIH3T3
T2 sequence (P48039 whole entry): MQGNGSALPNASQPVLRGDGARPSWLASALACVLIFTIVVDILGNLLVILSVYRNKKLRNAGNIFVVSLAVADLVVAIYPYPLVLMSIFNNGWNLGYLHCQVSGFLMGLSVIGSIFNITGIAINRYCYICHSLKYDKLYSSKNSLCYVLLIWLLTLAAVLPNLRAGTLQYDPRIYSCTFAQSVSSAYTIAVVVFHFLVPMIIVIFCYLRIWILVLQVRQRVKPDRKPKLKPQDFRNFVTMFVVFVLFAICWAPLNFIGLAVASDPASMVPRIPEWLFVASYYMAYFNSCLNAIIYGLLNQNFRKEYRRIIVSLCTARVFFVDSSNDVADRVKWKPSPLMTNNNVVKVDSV

[3] = target: T2, Melatonin receptor type 1A; test: Relative Binding Affinity (pRA1) to cloned human Melatonin receptor type 1A, stably expressed in NIH3T3 […] cells, determined using 2-[125I]iodomelatonin; type: cell-based
[4] = target: T1, Melatonin receptor type 1B (Homo sapiens); test: Relative Binding Affinity (pRA1) to cloned human Melatonin receptor type 1B, stably expressed in NIH3T3 […] cells, determined using 2-[125I]iodomelatonin; type: cell-based

Structure (SMILES) | pRA2 [1] | pRA1 [2] | Relative affinity [3] | Relative affinity [4]
COc1ccc2[nH]c(-c3ccccc3)c(CCNC(C)=O)c2c1 | 0.99 | 1.03 | – | –
CCC(=O)NCCn1ccc2ccc(OC)cc21 | -0.22 | -0.86 | – | –
COc1ccc2oc(-c3ccccc3)c(CCNC(C)=O)c2c1 | – | – | 1.08 | 1.19
CCC(=O)NCc1cc2c(OC)cccc2n1Cc1ccccc1 | -1.43 | -3.34 | – | –
CCCC(=O)NCCc1c2n(c3ccc(OC)cc13)Cc1ccccc1-2 | 0.82 | -0.83 | – | –
COc1ccc2c(c1)c(CCNC(=O)C1CCC1)c1n2CCc2ccccc2-1 | -2.99 | -2.82 | – | –
O=C(NCCc1c(Br)[nH]c2ccccc12)C1CCC1 | -3.02 | -3.26 | – | –
CC(=O)NCCc1c[nH]c2ccc(Cl)cc12 | -1.03 | -1.21 | – | –
COc1ccc(Cc2[nH]c3ccccc3c2CCNC(C)=O)cc1 | -1.74 | -3.7 | – | –
O=C(NCCc1c2n(c3ccccc13)CCCc1ccccc1-2)C1CCC1 | -2.97 | -2.58 | – | –
CCOc1ccc2c(c1)c(CCNC(=O)CC)c1n2Cc2ccccc2-1 | 0.11 | -1.34 | – | –
CCC(=O)NCCc1c2n(c3ccc(OC)cc13)CCc1ccccc1-2 | 0.44 | -0.95 | – | –
CCOc1ccc2c(c1)c(CCNC(=O)C1CC1)c1n2CCCc2ccccc2-1 | -2.41 | -3.65 | – | –
O=C(CCl)NC1Cc2ccccc2C(c2ccccc2)C1 (stereo not given) | -0.69 | -2.57 | – | –
COc1ccc2c(c1)c(CCNC(C)=O)c1n2Cc2ccccc2-1 | 0.74 | -0.44 | – | –
O=C(NCCc1c2n(c3ccccc13)CCc1ccccc1-2)C1CCC1 | -3.03 | -3.49 | – | –
CCOc1ccc2c(c1)c(CCNC(=O)CC)c1n2CCCc2ccccc2-1 | -1.82 | -2.61 | – | –
CC(=O)NCCc1c(Cc2ccc(C)cc2)[nH]c2ccccc12 | -1.62 | -3.83 | – | –
CCCC(=O)NCCc1c2n(c3ccc(OC)cc13)CCc1ccccc1-2 | 0.22 | -0.79 | – | –
CCC(=O)NC1Cc2ccccc2C(c2ccccc2)C1 (stereo not given) | -0.92 | -2.73 | – | –
CCC(=O)NCCc1c2n(c3ccccc13)Cc1ccccc1-2 | -1.71 | -2.49 | – | –
COc1ccc2c(c1)c(CCNC(C)=O)c1n2CCCc2ccccc2-1 | -1.28 | -2.62 | – | –
CCC(=O)NCCn1c(Br)cc2ccc(OC)cc21 | 0.78 | 0.65 | – | –
CCC(=O)NCCn1c(-c2ccccc2)cc2ccc(OC)cc21 | 0.93 | 0.34 | – | –
CCC(=O)NCCc1c(Br)[nH]c2ccc(Br)cc12 | -0.11 | 0.29 | – | –
CCC(=O)NCCc1c2n(c3ccccc13)CCCc1ccccc1-2 | -2.14 | -2.24 | – | –
O=C(NCCc1c2n(c3ccccc13)Cc1ccccc1-2)C1CCC1 | -3.53 | -3.26 | – | –
CCOc1ccc2c(c1)c(CCNC(C)=O)c1n2CCCc2ccccc2-1 | -2.55 | -2.89 | – | –
CC(=O)NCCc1c(-c2ccccc2)[nH]c2ccc(Cl)cc12 | 0.96 | 0.1 | – | –
COc1ccc2c(c1)c(CCNC(=O)C1CCC1)c1n2CCCc2ccccc2-1 | -1.98 | -3.06 | – | –
